Where “and” joins values, the source holds several entries; their conditions need not be identical. Identical values can stand only once. Where a SMILES comes first, the peptide text is derived from it. The star is where a group is joined. Cbz = O=C(OCc1ccccc1)*
Key:
Test in all cases: cells
[1] = tested on: KINGS-1; format: functional, cell-based, Homo sapiens;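 further: cell viability assay measuring suppression of KINGS-1 cell growth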
[2] = tested on: NB5; format: functional, cell-based, Homo sapiens;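 further: growth inhibition of NB5 cells, read out as cell viability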
[3] = tested on: HDLM-2; format: functional, cell-based, Homo sapiens;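 further: cell viability assay measuring suppression of HDLM-2 proliferation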
[4] = tested on: EW-16; format: functional, cell-based, Homo sapiens;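 further: growth inhibition of human EW-16 cells, read out as cell viability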
[5] = tested on: OCI-AML2; format: functional, cell-based, Homo sapiens;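 further: growth inhibition of OCI-AML2 cells, read out with a cell viability assay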
[6] = tested on: A388; format: functional, cell-based; conditions: Homo sapiens;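 further: growth inhibition of human A388 cells, read out with a cell viability assay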
[7] = tested on: IST-SL1; format: functional, cell-based, Homo sapiens;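 further: growth inhibition of human IST-SL1 cells, read out with a cell viability assay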
[8] = tested on: NCI-H226; format: functional, cell-based, Homo sapiens;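 further: cell viability read-out used to gauge growth inhibition of the cells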
[9] = tested on: MPP-89; format: functional, cell-based, Homo sapiens;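 further: growth inhibition of human MPP-89 cells, read out with a cell viability assay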
[10] = tested on: EW-11; format: functional, cell-based, Homo sapiens;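 further: growth inhibition of human EW-11 cells, measured with a cell viability assay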
[11] = tested on: SK-UT-1; format: functional, cell-based, Homo sapiens;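 further: growth inhibition of SK-UT-1 cells, measured by a cell viability assay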
[12] = tested on: DOHH-2; format: functional, cell-based, Homo sapiens;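 further: growth inhibition of human DOHH-2 cells, read out with a cell viability assay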
[13] = tested on: LC-2-ad; format: functional, cell-based, Homo sapiens;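 further: growth inhibition of human LC-2-ad cells, read out with a cell viability assay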
[14] = tested on: NCI-H69; format: functional, cell-based, Homo sapiens;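 further: growth inhibition of the cell line, read out with a cell viability assay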
[15] = tested on: KLE; format: functional, cell-based; conditions: Homo sapiens;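 further: growth inhibition of human KLE cells, read out with a cell viability assay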
[16] = tested on: HEL; format: functional, cell-based, Homo sapiens;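 further: growth inhibition of HEL cells, read out with a cell viability assay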
[17] = tested on: ACN; format: functional, cell-based, Homo sapiens;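 further: growth inhibition of the human ACN cell line, read out via cell viability testing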
[18] = tested on: NCI-H1581; format: functional, cell-based, Homo sapiens;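 further: cell growth inhibition read out by a viability assay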
[19] = tested on: BB30-HNC; format: functional, cell-based, Homo sapiens;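 further: growth inhibition of the cultured cell line, read out by a cell viability assay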
[20] = tested on: BV-173; format: functional, cell-based, Homo sapiens
[21] = tested on: NCI-H1395; format: functional, cell-based, Homo sapiens;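 further: cell viability assay read-out quantifying reduced proliferation of human NCI-H1395 cells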
[22] = tested on: TE-8; format: functional, cell-based, Homo sapiens;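 further: growth inhibition of TE-8 cells, measured with a cell viability readout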
[23] = tested on: MSTO-211H; format: functional, cell-based, Homo sapiens
[24] = tested on: OCUB-M; format: functional, cell-based; conditions: Homo sapiens;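 further: growth inhibition of the cancer cell line, read out through a cell viability assay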
[25] = tested on: no-11; format: functional, cell-based, Homo sapiens;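 further: growth inhibition of human NO-11 cells, read out with a cell viability assay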
[26] = tested on: QIMR-WIL; format: functional, cell-based, Homo sapiens;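 further: growth inhibition of QIMR-WIL cells, read out with a cell viability assay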
[27] = tested on: ES7; format: functional, cell-based, Homo sapiens;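 further: growth inhibition of cultured human ES7 cells, read out as cell viability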
[28] = tested on: EM-2; format: functional, cell-based, Homo sapiens;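 further: growth inhibition of EM-2 cells, read out with a cell viability assay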
[29] = tested on: TE-9; format: functional, cell-based, Homo sapiens;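 further: cell growth inhibition, measured with a cell viability readout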
[30] = tested on: SW872; format: functional, cell-based, Homo sapiens;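 further: growth inhibition of SW872 cells, read out by a viability assay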
[31] = tested on: KY821; format: functional, cell-based, Homo sapiens;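 further: growth inhibition of human KY821 cells, read out by a cell viability assay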
[32] = tested on: DU-4475; format: functional, cell-based, Homo sapiens
[33] = tested on: A704; format: functional, cell-based; conditions: Homo sapiens;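 further: growth inhibition of human A704 cells, read out with a cell viability assay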
[34] = tested on: LS-513; format: functional, cell-based, Homo sapiens
[35] = tested on: D-247MG; format: functional, cell-based; conditions: Homo sapiens
[36] = tested on: EW-18; format: functional, cell-based, Homo sapiens; conditions: read-out: IC50;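 further: growth inhibition of EW-18 cells, read out by a cell viability assay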
[37] = tested on: SW982; format: functional, cell-based; conditions: Homo sapiens;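 further: growth inhibition of SW982 cells, read out with a cell viability assay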
[38] = tested on: NCI-H1770; format: functional, cell-based, Homo sapiens;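 further: growth inhibition of NCI-H1770 cells determined with a viability readout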
[39] = tested on: LAN-6; format: functional, cell-based, Homo sapiens;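 further: growth inhibition of LAN-6 cells, determined with a cell viability assay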
[40] = tested on: IST-MEL1; format: functional, cell-based, Homo sapiens;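 further: growth inhibition of the cell line, read out with a cell viability assay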
[41] = tested on: D-502MG; format: functional, cell-based, Homo sapiens
[42] = tested on: no-10; format: functional, cell-based, Homo sapiens;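 further: growth inhibition of no-10 cells, read out with a cell viability assay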
[43] = tested on: MMAC-SF; format: functional, cell-based; conditions: Homo sapiens;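 further: growth inhibition of human MMAC-SF cells, read out with a cell viability assay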
[44] = tested on: NCI-H1092; format: functional, cell-based, Homo sapiens;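 further: cell growth inhibition measured with a cell viability assay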
[45] = tested on: TE-5; format: functional, cell-based, Homo sapiens;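 further: inhibition of cell growth, read out by a cell viability assay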
[46] = tested on: GAK; format: functional, cell-based, Homo sapiens;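 further: cell growth inhibition read out by a cell viability assay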
[47] = tested on: NCI-H1838; format: functional, cell-based, Homo sapiens;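 further: growth inhibition of NCI-H1838 cells, determined with a cell viability readout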
[48] = tested on: KGN; format: functional, cell-based, Homo sapiens;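 further: growth inhibition of KGN cells, read out with a cell viability assay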
[49] = tested on: HT; format: functional, cell-based, Homo sapiens

C[C@@H](Oc1cc(-c2cnn(C3CCNCC3)c2)cnc1N)c1c(Cl)ccc(F)c1Cl [CRIZOTINIB]
IC50 ([1]; Homo sapiens, KINGS-1): 0.75 µM
IC50 ([2]; Homo sapiens, NB5): > 2 µM
IC50 ([3]; Homo sapiens, HDLM-2): > 2 µM
IC50 ([4]; Homo sapiens, EW-16): > 2 µM
IC50 ([5]; Homo sapiens, OCI-AML2): > 2 µM
IC50 [6]: > 2 µM
IC50 ([7]; Homo sapiens, IST-SL1): > 2 µM
IC50 ([8]; Homo sapiens, NCI-H226): > 2 µM
IC50 ([9]; Homo sapiens, MPP-89): > 2 µM
IC50 ([10]; Homo sapiens, EW-11): > 2 µM
IC50 ([11]; Homo sapiens, SK-UT-1): > 2 µM
IC50 ([12]; Homo sapiens, DOHH-2): > 2 µM
IC50 ([13]; Homo sapiens, LC-2-ad): > 2 µM
IC50 ([14]; Homo sapiens, NCI-H69): > 2 µM
IC50 [15]: > 2 µM
IC50 ([16]; Homo sapiens, HEL): > 2 µM
IC50 ([17]; Homo sapiens, ACN): > 2 µM
IC50 ([18]; Homo sapiens, NCI-H1581): > 2 µM
IC50 ([19]; Homo sapiens, BB30-HNC): > 2 µM
IC50 ([20]; Homo sapiens, BV-173): 1.06 µM
IC50 ([21]; Homo sapiens, NCI-H1395): > 2 µM
IC50 ([22]; Homo sapiens, TE-8): > 2 µM
IC50 ([23]; Homo sapiens, MSTO-211H): > 2 µM
IC50 [24]: > 2 µM
IC50 ([25]; Homo sapiens): > 2 µM
IC50 ([26]; Homo sapiens, QIMR-WIL): > 2 µM
IC50 ([27]; Homo sapiens, ES7): > 2 µM
IC50 ([28]; Homo sapiens, EM-2): 0.601 µM
IC50 ([29]; Homo sapiens, TE-9): > 2 µM
IC50 ([30]; Homo sapiens, SW872): > 2 µM
IC50 ([31]; Homo sapiens, KY821): > 2 µM
IC50 ([32]; Homo sapiens, DU-4475): > 2 µM
IC50 [33]: > 2 µM
IC50 ([34]; Homo sapiens, LS-513): > 2 µM
IC50 [35]: > 2 µM
IC50 ([36]; Homo sapiens, EW-18): > 2 µM
IC50 [37]: > 2 µM
IC50 ([38]; Homo sapiens, NCI-H1770): > 2 µM
IC50 ([39]; Homo sapiens, LAN-6): > 2 µM
IC50 ([40]; Homo sapiens, IST-MEL1): > 2 µM
IC50 ([41]; Homo sapiens, D-502MG): > 2 µM
IC50 ([42]; Homo sapiens): > 2 µM
IC50 [43]: > 2 µM
IC50 ([44]; Homo sapiens, NCI-H1092): > 2 µM
IC50 ([45]; Homo sapiens, TE-5): > 2 µM
IC50 ([47]; Homo sapiens, NCI-H1838): > 2 µM
IC50 ([48]; Homo sapiens, KGN): > 2 µM
IC50 ([49]; Homo sapiens, HT): > 2 µM

Nc1ccccc1NC(=O)c1ccc(CNC(=O)OCc2cccnc2)cc1 [ENTINOSTAT]
IC50 ([1]; Homo sapiens, KINGS-1): 4.31 µM
IC50 ([2]; Homo sapiens, NB5): 1.66 µM
IC50 ([3]; Homo sapiens, HDLM-2): 1.68 µM
IC50 ([4]; Homo sapiens, EW-16): 1.93 µM
IC50 ([5]; Homo sapiens, OCI-AML2): 3.63 µM
IC50 [6]: 1.52 µM
IC50 ([7]; Homo sapiens, IST-SL1): 0.773 µM
IC50 ([8]; Homo sapiens, NCI-H226): > 5 µM
IC50 ([9]; Homo sapiens, MPP-89): 2.33 µM
IC50 ([10]; Homo sapiens, EW-11): > 5 µM
IC50 ([11]; Homo sapiens, SK-UT-1): 1.79 µM
IC50 ([12]; Homo sapiens, DOHH-2): > 5 µM
IC50 ([13]; Homo sapiens, LC-2-ad): 0.537 µM
IC50 ([14]; Homo sapiens, NCI-H69): 0.801 µM
IC50 ([16]; Homo sapiens, HEL): 0.313 µM
IC50 ([17]; Homo sapiens, ACN): 0.51 µM
IC50 ([18]; Homo sapiens, NCI-H1581): > 5 µM
IC50 ([19]; Homo sapiens, BB30-HNC): 1.39 µM
IC50 ([20]; Homo sapiens, BV-173): 0.371 µM
IC50 ([21]; Homo sapiens, NCI-H1395): > 5 µM
IC50 ([22]; Homo sapiens, TE-8): 0.369 µM
IC50 ([23]; Homo sapiens, MSTO-211H): 1.48 µM
IC50 [24]: 1.21 µM
IC50 ([25]; Homo sapiens): > 5 µM
IC50 ([26]; Homo sapiens, QIMR-WIL): 0.683 µM
IC50 ([27]; Homo sapiens, ES7): 1.8 µM
IC50 ([28]; Homo sapiens, EM-2): 0.241 µM
IC50 ([29]; Homo sapiens, TE-9): 1.84 µM
IC50 ([30]; Homo sapiens, SW872): 1.81 µM
IC50 ([31]; Homo sapiens, KY821): > 5 µM
IC50 ([32]; Homo sapiens, DU-4475): 0.587 µM
IC50 ([34]; Homo sapiens, LS-513): 0.445 µM
IC50 [35]: > 5 µM
IC50 ([36]; Homo sapiens, EW-18): > 5 µM
IC50 ([38]; Homo sapiens, NCI-H1770): > 5 µM
IC50 ([39]; Homo sapiens, LAN-6): 2.02 µM
IC50 ([40]; Homo sapiens, IST-MEL1): 1.18 µM
IC50 ([41]; Homo sapiens, D-502MG): > 5 µM
IC50 ([42]; Homo sapiens): 1.23 µM
IC50 [43]: > 5 µM
IC50 ([44]; Homo sapiens, NCI-H1092): 2.05 µM
IC50 ([45]; Homo sapiens, TE-5): 3.21 µM
IC50 ([47]; Homo sapiens, NCI-H1838): > 5 µM
IC50 ([48]; Homo sapiens, KGN): 2.77 µM
IC50 ([49]; Homo sapiens, HT): 2.1 µM

CC(C)C[C@@H](C=O)NC(=O)[C@H](CC(C)C)NC(=O)[C@H](CC(C)C)NC(=O)OCc1ccccc1 [MG-132] (Cbz-Leu-Leu-Leu-aldehyde)
IC50 ([1]; kings-1): 0.148 µM and 0.628 µM
IC50 ([2]; nb5): > 1 µM
IC50 ([3]; hdlm-2): > 1 µM
IC50 ([4]; ew-16): > 1 µM
IC50 ([5]; oci-aml2): > 1 µM
IC50 ([7]; ist-sl1): 0.201 µM and > 1 µM
IC50 ([8]; Homo sapiens, NCI-H226): > 1 µM
IC50 ([8]; nci-h226): > 1 µM
IC50 ([9]; mpp-89): > 1 µM
IC50 ([10]; ew-11): > 1 µM
IC50 ([11]; sk-ut-1): 0.22 µM and > 1 µM
IC50 ([12]; dohh-2): > 1 µM
IC50 ([13]; Homo sapiens, LC-2-ad): > 1 µM
IC50 ([13]; lc-2-ad): > 1 µM
IC50 ([14]; nci-h69): 0.151 µM and > 1 µM
IC50 [15]: 0.313 µM
IC50 ([16]; hel): 0.185 µM and > 1 µM
IC50 ([17]; acn): 0.226 µM and > 1 µM
IC50 ([18]; Homo sapiens, NCI-H1581): > 1 µM
IC50 ([18]; nci-h1581): > 1 µM
IC50 ([19]; bb30-hnc): > 1 µM
IC50 ([20]; bv-173): > 1 µM
IC50 ([21]; Homo sapiens, NCI-H1395): > 1 µM
IC50 ([21]; nci-h1395): > 1 µM
IC50 ([22]; Homo sapiens, TE-8): 0.343 µM
IC50 ([22]; te-8): 0.27 µM
IC50 ([23]; msto-211h): > 1 µM
IC50 [25]: > 1 µM
IC50 ([26]; qimr-wil): > 1 µM
IC50 ([27]; es7): 0.897 µM and > 1 µM
IC50 ([28]; em-2): > 1 µM and 0.878 µM
IC50 ([29]; te-9): 0.61 µM and > 1 µM
IC50 ([30]; sw872): 0.657 µM and > 1 µM
IC50 ([31]; ky821): > 1 µM
IC50 ([32]; du-4475): 0.197 µM and > 1 µM
IC50 [33]: 0.487 µM
IC50 ([34]; ls-513): 0.668 µM and > 1 µM
IC50 ([36]; ew-18): > 1 µM
IC50 [37]: > 1 µM
IC50 ([38]; nci-h1770): > 1 µM
IC50 ([39]; lan-6): 0.313 µM and > 1 µM
IC50 ([40]; ist-mel1): > 1 µM
IC50 ([41]; d-502mg): > 1 µM
IC50 [42]: 0.0891 µM and 0.608 µM
IC50 ([44]; nci-h1092): 0.388 µM and > 1 µM
IC50 ([45]; te-5): 0.143 µM and > 1 µM
IC50 ([46]; gak): 0.205 µM and > 1 µM
IC50 ([47]; nci-h1838): > 1 µM
IC50 ([48]; Homo sapiens, KGN): > 1 µM
IC50 ([48]; kgn): > 1 µM
IC50 ([49]; ht): > 1 µM
